Assay results published in patent publication US7846697B2, “Method of producing a low molecular weight organic compound in a cell” (BLMaps, priority 2003, dated 2010).

How the values were obtained:
[1] = Halkier and Møller, 1989; cited from earlier work

SMILES | stability in aqueous solutions [1] | toxicity to microbial organisms compared with the aglycon vanillin (microbial organisms)
N#CC(O)c1ccc(O)cc1 (centres unmarked) [p-hydroxymandelonitrile] | highly unstable | –
COc1cc(C=O)ccc1O[C@@H]1O[C@H](CO)[C@@H](O)[C@H](O)[C@H]1O [vanillin glucoside, vanillin-β-D-glucoside] | – | much less toxic
